In paper PMC11678245, “The Molecular Basis of the Intrinsic and Acquired Resistance to Azole Antifungals in Aspergillus fumigatus” (Journal of Fungi, 2024):
Where “and” joins values, the source holds several entries; their conditions need not be identical. Equal values may be shown once. Read-outs that look alike come from different tables or passages of the source.

Key:
[1] = system: S. cerevisiae strain ADΔΔ (native ScCYP51); assay: MIC80 susceptibility, host strain ADΔΔ; type: cell-based; conditions: Saccharomyces cerevisiae, Table 2, SD pH 6.8, 48 h, 30 °C
Protocol: (§1) The susceptibilities of S. cerevisiae strains to antifungal drugs were determined as minimum growth inhibitory concentration (MIC) values in 200 μL SD pH 6.8 [24]. Serial 2-fold dilutions of 100 μL of azole or control drugs in SD pH 6.8 were prepared in a 96-well microtiter plate. A portion of a 2 mL SD pH 6.8 overnight culture of the test strain was inoculated into 3 mL fresh SD pH 6.8 and incubated for 4 to 6 h at 30 °C to generate logarithmic-phase cells. These cells were then diluted with fresh SD pH 6.8 to OD600nm = 0.01 (3 × 10^4 CFU), and 100 μL of this cell suspension was added to microtiter plate wells. Cell growth after 48 h incubation at 30 °C with shaking at 200 rpm was determined at 600 nm using a BioTek™ Synergy™ 2 multi-Mode microplate reader controlled using Gen5™ Data Analysis Software version 3.16.10 (BioTek Instruments, Winooski, VT, USA). MIC80 values (80% growth inhibition in the presence of the test drug compared with the untreated control) for each yeast construct were determined as technical triplicates repeated three times for three separate clones.

[2] = system: S. cerevisiae strain ADLS overexpressing ScCYP51-6×His; assay: MIC80 susceptibility, strain ADLS; type: cell-based, Saccharomyces cerevisiae; conditions: for MIC80: Saccharomyces cerevisiae, Table 2, strain ADLS, SD pH 6.8, 48 h, 30 °C, ± SD, read-out: MIC80
Protocol: as §1

[3] = system: S. cerevisiae strain A (AfCyp51A-6×His, native ScCyp51 retained); assay: MIC80 susceptibility, strain A; type: cell-based; conditions: Saccharomyces cerevisiae, Table 2, SD pH 6.8, 48 h, 30 °C
Protocol: as §1

[4] = system: S. cerevisiae strain ARE T289A (AfCyp51A-6×His T289A, AfCprA2, AfErg6-FLAG); assay: MIC80 susceptibility, strain T289A; type: cell-based, Saccharomyces cerevisiae; conditions: for MIC80: ± SD
Protocol: as §1

[5] = system: S. cerevisiae strain ARE Y121F T289A (AfCyp51A-6×His Y121F T289A, AfCprA2, AfErg6-FLAG); assay: MIC80 susceptibility, strain Y121F T289A; type: cell-based, Saccharomyces cerevisiae; conditions: for MIC80: Saccharomyces cerevisiae, ± SD, read-out: MIC80
Protocol: as §1

[6] = system: S. cerevisiae Y2305 ADΔΔ CYP51 T322I (ScCYP51 T322I); assay: MIC80 susceptibility, strain Y2305 (Table S1); type: cell-based, Saccharomyces cerevisiae; conditions: Saccharomyces cerevisiae, read-out: MIC80
Protocol: as §1, with “clones. […]” for “clones.”
Table S1. Azole susceptibilities of ScCYP51 and ScCYP51 T322I expressed
Data for each strain was obtained for […] in three biological replicates.

[7] = molecular target: AfCYP51A-6×His (Aspergillus fumigatus, UniProt Q4WNT5); assay: Type II binding of azole drugs (difference spectra); conditions: for λpeak (type II difference spectrum) / λtrough (type II difference spectrum) / ΔAmax (type II binding) / Hill Number / Kd: AfCYP51A; for λpeak (type II difference spectrum) / λtrough (type II difference spectrum) / ΔAmax (type II binding) / Kd: 1 μM enzyme; for ΔAmax (type II binding) / Kd: Hill equation
Protocol: (§2) The concentration of AfCYP51A and AfCYP51B, purified using Ni-NTA affinity chromatography and used for the spectrophotometric type I and type II binding assays, was calculated using an extinction co-efficient of λ417nm = 117 mM^−1 cm^−1 applied to the absolute absorption spectrum of the preparations. In addition, the amount of “active” cytochrome P450 enzyme was determined using the carbon monoxide (CO) binding spectra of these preparations.
(§3) Type II binding difference spectra were obtained using 1 μM of affinity-purified CYP51 enzymes. VCZ, PCZ, VT-1161, DCZ, and MCF working solutions were prepared in DMSO, while FLC was prepared in Milli-Q water. Azole drugs were added to the sample cuvette, and corresponding amounts of DMSO or Milli-Q water were added to the reference cuvette. Drug binding curves were plotted using the difference spectrum peak and trough detected in the range of 410–425 nm. Dissociation constants (Kd) were determined by nonlinear regression (Levenberg–Marquardt algorithm) of the difference in absorbance between the peak and trough against the azole concentration using a rearrangement of the Morrison equation or the Hill equation [7]. GraphPad Prism 9.2.0 software was used to identify the best fit for the data.

[8] = molecular target: T1, AfCYP51B-6×His (Aspergillus fumigatus, UniProt E9QY26); assay: as above; conditions: for λpeak (type II difference spectrum) / λtrough (type II difference spectrum) / ΔAmax (type II binding) / Kd: 1 μM enzyme; for ΔAmax (type II binding) / Kd: Hill equation; for Hill Number / Kd: type II binding
T1 sequence (E9QY26 1-524): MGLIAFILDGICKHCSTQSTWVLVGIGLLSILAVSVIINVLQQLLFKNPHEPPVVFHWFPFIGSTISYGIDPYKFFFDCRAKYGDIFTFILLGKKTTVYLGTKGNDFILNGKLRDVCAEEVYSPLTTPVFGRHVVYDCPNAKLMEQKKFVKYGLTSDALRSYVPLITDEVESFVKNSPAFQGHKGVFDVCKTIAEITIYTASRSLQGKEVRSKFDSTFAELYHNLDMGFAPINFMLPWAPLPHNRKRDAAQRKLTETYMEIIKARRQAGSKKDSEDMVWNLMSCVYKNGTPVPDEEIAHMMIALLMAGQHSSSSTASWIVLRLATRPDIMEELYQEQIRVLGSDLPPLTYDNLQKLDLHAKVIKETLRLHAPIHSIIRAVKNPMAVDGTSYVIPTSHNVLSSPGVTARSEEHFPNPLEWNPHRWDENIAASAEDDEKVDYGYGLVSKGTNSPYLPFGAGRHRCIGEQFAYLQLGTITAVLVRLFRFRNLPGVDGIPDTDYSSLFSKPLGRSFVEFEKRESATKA
Protocol: as §2, §3

[9] = Saccharomyces cerevisiae, 48 h, pH 6.8, Table 2, strain T289A, SD pH 6.8, 48 h, 30 °C, read-out: MIC80
[10] = Table 2, strain Y121F T289A, SD pH 6.8, 48 h, 30 °C

AfCYP51A-6×His, sequence (Q4WNT5 whole entry): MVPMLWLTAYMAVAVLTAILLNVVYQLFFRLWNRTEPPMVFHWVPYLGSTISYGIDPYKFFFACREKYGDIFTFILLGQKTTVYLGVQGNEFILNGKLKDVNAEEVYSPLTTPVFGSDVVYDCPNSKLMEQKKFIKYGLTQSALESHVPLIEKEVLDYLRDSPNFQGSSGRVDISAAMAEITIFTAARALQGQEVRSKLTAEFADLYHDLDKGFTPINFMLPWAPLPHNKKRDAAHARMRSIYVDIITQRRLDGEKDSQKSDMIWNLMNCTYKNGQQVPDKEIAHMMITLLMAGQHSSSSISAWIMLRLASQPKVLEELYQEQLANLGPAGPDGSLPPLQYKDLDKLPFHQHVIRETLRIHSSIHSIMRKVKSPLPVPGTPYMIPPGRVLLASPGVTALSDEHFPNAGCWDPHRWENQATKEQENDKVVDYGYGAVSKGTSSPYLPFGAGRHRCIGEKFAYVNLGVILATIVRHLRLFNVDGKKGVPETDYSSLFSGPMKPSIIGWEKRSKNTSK

Structure (SMILES) | MIC80 [1] [µM] | MIC80 [2] [µM] | MIC80 [3] [µM] | greater susceptibility (MIC80) of strain T289A compared with strain ARE [4] [fold] | MIC80 [4, 9] [µM] | increase in resistance (MIC80) of strain Y121F T289A compared with strain BRE [5] [fold] | increase in resistance (MIC80) of strain Y121F T289A compared with strain T289A [5] [fold] | MIC80 [5, 10] [µM] | MIC80 [6] [µM] | λpeak (type II difference spectrum) [7] [nm] | λtrough (type II difference spectrum) [7] [nm] | ΔAmax (type II binding) [7] | Hill Number ([7]; type II binding) | Kd ([7]; type II binding) | λpeak (type II difference spectrum) [8] [nm] | λtrough (type II difference spectrum) [8] [nm] | ΔAmax (type II binding) [8] | Hill Number [8] | Kd [8] [nM] | also measured
OC(Cn1cncn1)(Cn1cncn1)c1ccc(F)cc1F [FLC, fluconazole] | 3.3 ± 0.2 | 8 ± 0.2 | 3.8 ± 0.2 | 11 | 21.3 ± 2.7 | 106 | 53 | 1060 ± 60 | 6.6 ± 0.2 | 422 | 383 | 0.10 | 0.72 | 3230 ± 1130 nM | 425 | 407 | 0.09 | 1.75 | 1430 ± 70 | MIC80 of strain ADLS relative to strain ADΔΔ ([2]; higher): 3 fold; MIC80 ([4]; Saccharomyces cerevisiae, Table 3, strain ARE T289A, read-out: MIC80): 12 ± 2 µM; MIC80 of strain T289A relative to strain ADΔΔ ([4]; higher): 7 fold; increase in resistance (MIC80) of strain Y121F T289A compared with strain ARE [5]: 5 fold; increase in resistance (MIC80) of strain Y121F T289A compared with strain Y121F [5]: 4 fold; MIC80 ([5]; Table 3, strain ARE Y121F T289A): 725 ± 65 µM; Kd of AfCYP51A relative to AfCYP51B ([7]; type II binding): 2.26 fold
C[C@@H](c1ncncc1F)[C@](O)(Cn1cncn1)c1ccc(F)cc1F [VCZ, voriconazole] | 0.06 | 0.17 ± 0.03 | 0.08 ± 0.01 | 2.5 | < 0.12 | 4 | 4 | 2.86 ± 0.22 | 0.8 ± 0.03 | 422 | 392 | 0.05 | 1.10 | 1500 nM and 1520 nM | 427 | 410 | 0.03 | 1.12 | 800 ± 310 | MIC80 ([4]; Table 2, strain T289A, SD pH 6.8, 48 h, 30 °C): 0.11 ± 0.00 µM
